Test results: patent US20240254138A1, “TRICYCLIC PYRIMIDINES AS CYCLIN-DEPENDENT KINASE 7 (CDK7) INHIBITORS” (JANSSEN PHARMACEUTICA NV, priority 2021, published 2024)
Where two headings read alike, the source gives them in different places.

Key:
[1] = system: RNA Polymerase II Serine 5 phosphorylation in A549 cells overexpressing CDK7-mutant (C312S); assay: Imaging-based cellular RNA PolII Ser5 phosphorylation assay in A549 cells overexpressing CDK7-mutant (C312S); format: cell-based, human; conditions: RNA PolII Ser5 phosphorylation, averaged over all measurements; for IC50: Homo sapiens, A549, A549 cells overexpressing CDK7-mutant (C312S), read-out: CDK7_A549 mutant hCDK7(pIC50) (converted)
Summary of the method: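 Readout was automated imaging of anti-phospho-Ser5 Rpb1 CTD immunofluorescence, with IC50 fitted to % control versus concentration. Cells were A549 stably overexpressing non-covalently targetable CDK7 C312S alongside wild-type, exposed to compound 3 h at 37 °C. DMSO and 10 μM reference compound served as controls.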

[2] = system: RNA Polymerase II Serine 5 phosphorylation (Rpb1 CTD, downstream substrate of CDK7) in A549 cells; assay: Imaging-based cellular RNA PolII Ser5 phosphorylation assay in A549 cells; format: cell-based, human; conditions: wild-type CDK7, RNA PolII Ser5 phosphorylation, averaged over all measurements; for IC50: Homo sapiens, A549, A549 cells, read-out: CDK7_A549 Wild-type CDK7 (pIC50) (converted)
Summary of the method: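 IC50 derived by fitting % control (DMSO high, 10 μM reference low) against concentration, with Hill slope. Readout: high-content imaging of phospho-Ser5 Rpb1 CTD antibody staining in fixed, permeabilized A549 cells exposed to compound 3 h after 20 h culture in 1% FBS DMEM.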

[3] = molecular target: CDK7/cyclinH/MAT1 trimeric complex (Homo sapiens, UniProt P50613); assay: In vitro CDK7 assay, potency of irreversible covalent inhibitors (kinact/KI), coupled PK/LDH ADP readout at 340 nm; conditions: for Ki: CDK7 (20 nM enz.) (KI, μM); for kinact: read-out: CDK7 (20 nM enz.) (kinact, s^−1), 20 nM enzyme
Sequence of CDK7/cyclinH/MAT1 trimeric complex (P50613 whole entry): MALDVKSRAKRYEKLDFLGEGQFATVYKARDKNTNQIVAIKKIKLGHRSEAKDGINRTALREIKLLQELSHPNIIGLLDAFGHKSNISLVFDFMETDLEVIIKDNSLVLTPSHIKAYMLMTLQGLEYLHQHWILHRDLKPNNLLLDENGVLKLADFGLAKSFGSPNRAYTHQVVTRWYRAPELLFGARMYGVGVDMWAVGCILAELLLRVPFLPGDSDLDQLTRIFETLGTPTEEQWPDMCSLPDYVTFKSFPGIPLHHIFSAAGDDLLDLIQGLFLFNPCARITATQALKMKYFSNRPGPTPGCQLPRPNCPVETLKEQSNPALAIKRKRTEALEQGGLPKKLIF
Sequence of CDK7/cyclinH/MAT1 trimeric complex (P51946 whole entry partner): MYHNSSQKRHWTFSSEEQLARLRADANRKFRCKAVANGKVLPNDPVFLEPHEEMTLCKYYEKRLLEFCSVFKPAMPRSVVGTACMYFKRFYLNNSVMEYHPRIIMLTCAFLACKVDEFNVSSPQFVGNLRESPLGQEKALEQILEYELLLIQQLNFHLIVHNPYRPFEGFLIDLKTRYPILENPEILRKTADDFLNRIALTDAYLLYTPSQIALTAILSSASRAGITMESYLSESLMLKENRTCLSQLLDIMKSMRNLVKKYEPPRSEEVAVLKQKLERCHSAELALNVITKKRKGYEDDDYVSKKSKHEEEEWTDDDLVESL
Sequence of CDK7/cyclinH/MAT1 trimeric complex (P51948 whole entry partner): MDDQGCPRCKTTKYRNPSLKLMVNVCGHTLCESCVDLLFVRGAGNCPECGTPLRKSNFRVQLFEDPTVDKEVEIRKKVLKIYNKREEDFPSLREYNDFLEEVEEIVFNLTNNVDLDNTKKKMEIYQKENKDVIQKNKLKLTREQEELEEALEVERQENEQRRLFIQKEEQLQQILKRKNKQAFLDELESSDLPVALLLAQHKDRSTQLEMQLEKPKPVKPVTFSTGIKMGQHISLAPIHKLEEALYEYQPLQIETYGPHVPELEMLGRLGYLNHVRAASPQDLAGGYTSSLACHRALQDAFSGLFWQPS

[4] = read-out: CDK7 (20 nM enz.) (kinact/KI, M^−1*s^−1), 20 nM enzyme
[5] = read-out: CDK7 (20 nM enz.) (kobs/[I], M^−1*s^−1), 20 nM enzyme

IC50 [1] | IC50 [2] | Ki ([3]; 20 nM enzyme) | kinact [3] | kinact/KI [3, 4] | kinact/KI [3, 5] | CDK7_A549 mutant hCDK7(pIC50) ([1]; A549 cells overexpressing CDK7-mutant (C312S)) | CDK7_A549 Wild-type CDK7 (pIC50) ([2]; A549 cells) | CDK7 (20 nM enz.) (kinact, s^−1) ([3]; 20 nM enzyme) | CDK7 (20 nM enz.) (kinact/KI, M^−1*s^−1) ([3]; 20 nM enzyme) | SMILES
> 10 µM | 2.04 µM | 2 µM | 3.49e-05 s⁻¹ | 17.4 M⁻¹ s⁻¹ | – | – | – | – | – | CC#CC(=O)N1CC[C@@H](N2CC(c3cc(C)c4c(c3)Nc3nccc(N5CCOCC5)c3[C@H](C)O4)C2)C1 (single isomer, unassigned) [Compound 284]
10 µM | 0.129 µM | 0.0411 µM | 2.54e-05 s⁻¹ | 619 M⁻¹ s⁻¹ | – | – | – | – | – | CC#CC(=O)N1CC[C@H](N2CC(c3cc(C)c4c(c3)Nc3nccc(N5CCOCC5)c3[C@@H](C)O4)C2)C1 (single isomer, unassigned) [Compound 288]
> 10 µM | 0.123 µM | 0.0628 µM | 2.54e-05 s⁻¹ | 404 M⁻¹ s⁻¹ | – | – | – | – | – | CC#CC(=O)N1CC[C@@H](N2CC(c3cc(C)c4c(c3)Nc3nccc(N5CCOCC5)c3[C@@H](C)O4)C2)C1 (single isomer, unassigned) [Compound 289]
> 10 µM | 0.447 µM | 0.434 µM | 1.51e-05 s⁻¹ | 34.8 M⁻¹ s⁻¹ | – | – | – | – | – | CC#CC(=O)N1CC(N2CC[C@@H](c3cc4c(c(C)n3)O[C@H](C)c3c(N5CCOCC5)ccnc3N4)C2)C1 (single isomer, unassigned) [Compound 308]
> 10 µM | 0.129 µM | 0.277 µM | 5.45e-05 s⁻¹ | 197 M⁻¹ s⁻¹ | – | – | – | – | – | CC#CC(=O)N1CC[C@H](N2CCC(c3cc4c(c(C)n3)OCc3c(N5CCOCC5)ccnc3N4)CC2)C1 (single isomer, unassigned) [Compound 309]
> 10 µM | 0.0759 µM | 0.115 µM | 6.29e-05 s⁻¹ | 547 M⁻¹ s⁻¹ | – | – | – | – | – | CC#CC(=O)N1CC[C@@H](N2CCC(c3cc4c(c(C)n3)OCc3c(N5CCOCC5)ccnc3N4)CC2)C1 (single isomer, unassigned) [Compound 310]
> 10 µM | 0.0776 µM | 0.047 µM | 6.15e-05 s⁻¹ | 1310 M⁻¹ s⁻¹ | – | – | – | – | – | C=CC(=O)N1CC(N2CC[C@@H](c3cc4c(c(C)n3)O[C@H](C)c3c(N5CCOCC5)ccnc3N4)C2)C1 (single isomer, unassigned) [Compound 319]
7.94 µM | 0.0832 µM | 0.0217 µM | 6.41e-05 s⁻¹ | 2950 M⁻¹ s⁻¹ | – | – | – | – | – | C=CC(=O)N1CC[C@@H](N2CC(c3cc4c(c(C5CC5)n3)OCc3c(N5CCOCC5)ccnc3N4)C2)C1 (single isomer, unassigned) [Compound 323]
7.76 µM | 0.0891 µM | – | – | – | 939 M⁻¹ s⁻¹ | – | – | – | – | C=CC(=O)N1CC[C@H](N2CC(c3cc4c(c(C5CC5)n3)OCc3c(N5CCOCC5)ccnc3N4)C2)C1 (single isomer, unassigned) [Compound 326]
> 10 µM | 0.224 µM | 0.472 µM | 2.77e-05 s⁻¹ | 58.8 M⁻¹ s⁻¹ | – | – | – | – | – | CC#CC(=O)N1CC(N2CC[C@@H](c3cc4c(c(C)n3)O[C@@H](C)c3c(N5CCOCC5)ccnc3N4)C2)C1 (single isomer, unassigned) [Compound 328]
– | – | 0.0503 µM | – | – | – | <5 | 7.15 | 5.902e-05 s⁻¹ | 1172.91 M⁻¹ s⁻¹ | C=CC(=O)N1CC(N2CC(c3cc4c(c(C)n3)O[C@H](C)c3c(N5CCOCC5)ccnc3N4)C2)C1 (single isomer, unassigned) [Compound 343]
> 10 µM | 3.98 µM | 17.1 µM | 5.4e-05 s⁻¹ | 3.15 M⁻¹ s⁻¹ | – | – | – | – | – | CC#CC(=O)N1CC(N2CCC(c3cc4c(c(C)n3)O[C@@H](C)c3c(N5CCOCC5)ccnc3N4)CC2)C1 (single isomer, unassigned) [Compound 344]
> 10 µM | 0.0871 µM | 0.131 µM | 3.88e-05 s⁻¹ | 296 M⁻¹ s⁻¹ | – | – | – | – | – | CC#CC(=O)N1CC(N2CCC(c3cc4c(c(C)n3)O[C@H](C)c3c(N5CCOCC5)ccnc3N4)CC2)C1 (single isomer, unassigned) [Compound 345]
4.57 µM | 0.0151 µM | – | – | – | 2670 M⁻¹ s⁻¹ | – | – | – | – | C=CC(=O)N1CC(N2CCC(c3cc(C#N)c4c(c3)Nc3nccc(N5CCOCC5)c3[C@@H](C)O4)CC2)C1 (single isomer, unassigned) [Compound 354]
> 10 µM | 0.195 µM | 0.211 µM | 3.51e-05 s⁻¹ | 166 M⁻¹ s⁻¹ | – | – | – | – | – | CC#CC(=O)N1CC(N2CC(c3cc4c(c(C)n3)O[C@H](C)c3c(N5CCOCC5)ccnc3N4)C2)C1 (single isomer, unassigned) [Compound 355]

The next lines start with the compound.

SMILES | IC50 [1] | IC50 [2] | Ki ([3]; 20 nM enzyme) | kinact [3] | kinact/KI [3, 4] | kinact/KI [3, 5] | CDK7_A549 mutant hCDK7(pIC50) ([1]; A549 cells overexpressing CDK7-mutant (C312S)) | CDK7_A549 Wild-type CDK7 (pIC50) ([2]; A549 cells) | CDK7 (20 nM enz.) (kinact, s^−1) ([3]; 20 nM enzyme) | CDK7 (20 nM enz.) (kinact/KI, M^−1*s^−1) ([3]; 20 nM enzyme)
C=CC(=O)N1CC[C@@H](N2CC(c3cc4c(c(C5CC5)n3)OCc3c(-c5cnn(C)c5)ccnc3N4)C2)C1 (single isomer, unassigned) [Compound 286] | > 10 µM | 0.126 µM | 0.146 µM | 4.74e-05 s⁻¹ | 324 M⁻¹ s⁻¹ | – | – | – | – | –
C=CC(=O)N1CC[C@H](N2CC(c3cc4c(c(C5CC5)n3)OCc3c(-c5cnn(C)c5)ccnc3N4)C2)C1 (single isomer, unassigned) [Compound 287] | > 10 µM | 0.129 µM | 0.188 µM | 0.000117 s⁻¹ | 622 M⁻¹ s⁻¹ | – | – | – | – | –
C=CC(=O)N1CC(N2CC(c3cc(C#N)c4c(c3)Nc3nccc(C5CCOCC5)c3[C@H](C)O4)C2)C1 (single isomer, unassigned) [Compound 291] | > 10 µM | 1.23 µM | – | – | – | 26.5 M⁻¹ s⁻¹ | – | – | – | –
C=CC(=O)N1CC(N2CC(c3cc(C#N)c4c(c3)Nc3nccc(C5CCOCC5)c3[C@@H](C)O4)C2)C1 (single isomer, unassigned) [Compound 292] | 8.32 µM | 0.0562 µM | – | – | – | 802 M⁻¹ s⁻¹ | – | – | – | –
C=CC(=O)N1CC(N2CC(c3cc4c(cn3)O[C@H](C)c3c(-c5cnn(C)c5)ccnc3N4)C2)C1 (single isomer, unassigned) [Compound 295] | ~8.32 µM | 0.178 µM | 0.0688 µM | 5.48e-05 s⁻¹ | 796 M⁻¹ s⁻¹ | – | – | – | – | –
CC#CC(=O)N1CC[C@@H](N2CC(c3cc(C)c4c(c3)Nc3nccc(C5CCOCC5)c3CO4)C2)C1 (single isomer, unassigned) [Compound 296] | > 10 µM | 0.224 µM | 0.067 µM | 3.52e-05 s⁻¹ | 526 M⁻¹ s⁻¹ | – | – | – | – | –
COC(=O)/C=C/C(=O)N1CC[C@H](N2CCC(c3cc4c(c(C)n3)OCc3c(-c5cnn(C)c5)ccnc3N4)CC2)C1 (single isomer, unassigned) [Compound 297] | > 10 µM | ~0.0234 µM | – | – | – | 1240 M⁻¹ s⁻¹ | – | – | – | –
CC#CC(=O)N1CC[C@@H](N2CCC(c3cc4c(c(C)n3)OCc3c(-c5cnn(C)c5)ccnc3N4)CC2)C1 (single isomer, unassigned) [Compound 299] | > 10 µM | 0.0871 µM | 0.0959 µM | 5.9e-05 s⁻¹ | 615 M⁻¹ s⁻¹ | – | – | – | – | –
COC(=O)/C=C/C(=O)N1CC[C@@H](N2CCC(c3cc4c(c(C)n3)OCc3c(-c5cnn(C)c5)ccnc3N4)CC2)C1 (single isomer, unassigned) [Compound 301] | > 10 µM | 0.024 µM | – | – | – | 2790 M⁻¹ s⁻¹ | – | – | – | –
CC#CC(=O)N1CC[C@H](N2CCC(c3cc4c(c(C)n3)OCc3c(-c5cnn(C)c5)ccnc3N4)CC2)C1 (single isomer, unassigned) [Compound 304] | > 10 µM | 0.129 µM | 0.111 µM | 4.09e-05 s⁻¹ | 369 M⁻¹ s⁻¹ | – | – | – | – | –
CC#CC(=O)N1CC[C@H](N2CC(c3cc(C)c4c(c3)Nc3nccc(C5CCOCC5)c3CO4)C2)C1 (single isomer, unassigned) [Compound 305] | > 10 µM | 0.24 µM | 0.0839 µM | 2.97e-05 s⁻¹ | 354 M⁻¹ s⁻¹ | – | – | – | – | –
C=CC(=O)N1CC[C@@H](N2CC(c3cc(C)c4c(c3)Nc3nccc(N5CCOCC5)c3CO4)C2)C1 (single isomer, unassigned) [Compound 327] | ~10 µM | 0.0794 µM | 0.0302 µM | 4.16e-05 s⁻¹ | 1380 M⁻¹ s⁻¹ | – | – | – | – | –
C=CC(=O)N1CC[C@H](N2CC(c3cc(C)c4c(c3)Nc3nccc(N5CCOCC5)c3CO4)C2)C1 (single isomer, unassigned) [Compound 329] | > 10 µM | 0.0794 µM | 0.0243 µM | 3.81e-05 s⁻¹ | 1570 M⁻¹ s⁻¹ | – | – | – | – | –
Cc1nc(C2CCN([C@@H]3CCN(C(=O)/C=C/C(=O)O)C3)CC2)cc2c1OCc1c(-c3cnn(C)c3)ccnc1N2 (single isomer, unassigned) [Compound 330] | > 10 µM | 7.24 µM | 4.58 µM | 8.82e-05 s⁻¹ | 19.2 M⁻¹ s⁻¹ | – | – | – | – | –
Cc1nc(C2CCN([C@H]3CCN(C(=O)/C=C/C(=O)O)C3)CC2)cc2c1OCc1c(-c3cnn(C)c3)ccnc1N2 (single isomer, unassigned) [Compound 332] | > 10 µM | 7.59 µM | 4.85 µM | 2.19e-05 s⁻¹ | 4.51 M⁻¹ s⁻¹ | – | – | – | – | –
